# Laboratory results reported in patent publication US6551582B2, “Deodorant composition” (Sumitomo Chemical Company, Limited, priority 2001, dated 2003).
# Assay: Test Example 1: deodorant effect of sprayed liquid formulations against ammonia gas in a flask
# Conditions: after 30 minutes, about 20° C.
# Description: Into a glass Erlenmeyer flask (1L-volume), 1 mL of 1.8% aqueous solution of ammonia was placed at room temperature (about 20° C.). After the flask was sealed with a rubber stopper and shaken to be filled with ammonia gas, the concentration of ammonia was measured with a gas detector tube (No. 3HM, Gastec Corporation).
# Next, 1 mL of each formulation obtained in Production example 1 was sprayed into the flask. The concentration of ammonia was measured with a gas detector tube (No. 3HM, Gastec Corporation) after 30 minutes. A control solution (1 mL) of a mixed solvent without the present deodorant compound was added into an Erlenmeyer flask (1 L-volume) containing ammonia gas, and then the […] of ammonia was measured with the same method after 30 minutes.
# Dehydroacetic acid was formulated in the same manner as Production example 1, and then comparative test was carried out by the same method.
# The formulations obtained in Production example 2 and 3 were provided to the same test.
# Deodorant rates were calculated by formula 1. [formula]
substance,measurement,setting,value
dehydroacetic acid,Deodorant rate (%) Production example 1,"1 mL formulation of Production example 1 (5 parts compound, 80 parts ethanol, 15 parts water) sprayed",20%
same,Deodorant rate (%) Production example 2,"1 mL formulation of Production example 2 (5 parts compound, 80 parts isopropyl alcohol, 15 parts water) sprayed",25%
same,Deodorant rate (%) Production example 3,"1 mL formulation of Production example 3 (5 parts compound, 80 parts glycerin, 15 parts water) sprayed",25%
